Reference: PubChem BioAssay AID256 (DTP/NCI, 2004)
Several values for one entry are separate records, joined by “and”; a condition that tells them apart may be missing. Identical values can stand only once. Toxic doses and inconclusive results are not listed. Rule for the calls: active = survival T/C of 150% or more; inactive = T/C below 125% in these data.

System: CD2F1 mice, L1210 leukemia ip, survival T/C
Experiment: NCI In Vivo Anticancer Drug Screen. Data for tumor model L1210 Leukemia (intraperitoneal) in CD2F1 (CDF1) mice
Details: endpoint: mean survival time, higher = longer survival
Summary of the method: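 Transplantable tumor in mice; compound-treated vs vehicle-treated groups. Read-out = treated/control ratio of the measured endpoint.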

[1] = dose: 50.0 mg/kg/injection, schedule: Q04DX003 (ip), vehicle: saline
[2] = dose: 100.0 mg/kg/injection, schedule: Q04DX003 (ip), vehicle: saline
[3] = dose: 100.0 mg/kg/injection, schedule: Q04DX003 (ip), vehicle: saline with Tween-80
[4] = dose: 200.0 mg/kg/injection, schedule: Q04DX003 (ip), vehicle: saline with Tween-80
[5] = dose: 400.0 mg/kg/injection, schedule: Q04DX003 (ip), vehicle: saline with Tween-80
[6] = dose: 100.0 mg/kg/injection, schedule: Q01DX009 (ip), vehicle: saline with Tween-80
[7] = dose: 200.0 mg/kg/injection, schedule: Q01DX009 (ip), vehicle: saline with Tween-80
[8] = dose: 400.0 mg/kg/injection, schedule: Q01DX009 (ip), vehicle: saline with Tween-80
[9] = dose: 100.0 mg/kg/injection, schedule: Q01DX001 (ip), vehicle: saline with Tween-80
[10] = dose: 50.0 mg/kg/injection, schedule: Q01DX009 (ip), vehicle: saline with Tween-80
[11] = dose: 200.0 mg/kg/injection, schedule: Q01DX001 (ip), vehicle: saline with Tween-80
[12] = dose: 400.0 mg/kg/injection, schedule: Q01DX001 (ip), vehicle: saline with Tween-80
[13] = dose: 100.0 mg/kg/injection, schedule: Q01DX009 (ip), vehicle: saline
[14] = dose: 100.0 mg/kg/injection, schedule: Q04DX002 (ip), vehicle: saline with Tween-80
[15] = dose: 200.0 mg/kg/injection, schedule: Q04DX002 (ip), vehicle: saline with Tween-80
[16] = dose: 400.0 mg/kg/injection, schedule: Q04DX002 (ip), vehicle: saline with Tween-80
[17] = dose: 75.0 mg/kg/injection, schedule: Q01DX001 (ip), vehicle: saline
[18] = dose: 150.0 mg/kg/injection, schedule: Q01DX001 (ip), vehicle: saline

Measured: T/C

CCc1ccc(O)cc1O
inactive: dose: 25.0 mg/kg/injection, schedule: Q04DX003 (ip), vehicle: saline 97 % of control | [1] 102 % of control | [2] 94 % of control and 96 % of control

S=c1nccc[nH]1.[Pd]
inactive: dose: 3.13 mg/kg/injection, schedule: Q04DX003 (ip), vehicle: distilled water + Tween-80 97 % of control | dose: 6.25 mg/kg/injection, schedule: Q04DX003 (ip), vehicle: distilled water + Tween-80 94 % of control | dose: 12.5 mg/kg/injection, schedule: Q04DX003 (ip), vehicle: distilled water + Tween-80 89 % of control | dose: 25.0 mg/kg/injection, schedule: Q04DX003 (ip), vehicle: distilled water + Tween-80 89 % of control | dose: 50.0 mg/kg/injection, schedule: Q04DX003 (ip), vehicle: distilled water + Tween-80 89 % of control

O=C(CC(NC(=O)OCc1ccccc1)C(=O)O)OCc1ccccc1 (centres undefined)
inactive: [3] 103 % of control | [4] 95 % of control | [5] 102 % of control

COc1ccc(CCNc2ccc(OC)c(OC)c2)cc1OC
inactive: dose: 12.5 mg/kg/injection, schedule: Q01DX009 (ip), vehicle: water 100 % of control | dose: 25.0 mg/kg/injection, schedule: Q01DX009 (ip), vehicle: water 96 % of control | dose: 50.0 mg/kg/injection, schedule: Q01DX009 (ip), vehicle: water 100 % of control | dose: 100.0 mg/kg/injection, schedule: Q01DX009 (ip), vehicle: water 96 % of control | dose: 200.0 mg/kg/injection, schedule: Q01DX009 (ip), vehicle: water 91 % of control

O=C(O)C1C2CC3C(C2)C31 (centres undefined)
inactive: dose: 100.0 mg/kg/injection, schedule: Q01DX009 (ip), vehicle: other 96 % of control | dose: 200.0 mg/kg/injection, schedule: Q01DX009 (ip), vehicle: other 104 % of control

CC(=O)OCc1ccc2ccccc2c1
inactive: [6] 100 % of control | [7] 102 % of control | [8] 118 % of control

Nc1ncnc(N2C(=S)OC3C(O)C(CO)OC32)c1N (centres undefined)
inactive: dose: 12.5 mg/kg/injection, schedule: Q01DX005 (ip), vehicle: water 92 % of control | dose: 25.0 mg/kg/injection, schedule: Q01DX005 (ip), vehicle: water 88 % of control | dose: 50.0 mg/kg/injection, schedule: Q01DX005 (ip), vehicle: water 95 % of control | dose: 100.0 mg/kg/injection, schedule: Q01DX005 (ip), vehicle: water 95 % of control | dose: 200.0 mg/kg/injection, schedule: Q01DX005 (ip), vehicle: water 90 % of control

N=c1sc2ccccc2n1CC(=O)O
inactive: [9] 100 % of control

O=C(Nc1nc(-c2ccccc2)cs1)Nc1cccc(Cl)c1Cl
inactive: [10] 101 % of control | [6] 90 % of control | [7] 97 % of control

Nc1nc(N)nc(Cc2ccccc2)n1
inactive: [9] 104 % of control | [11] 103 % of control | [12] 95 % of control

O=C(Nc1c(Cl)cccc1Cl)OCCOc1ccccc1Cl
inactive: [10] 98 % of control | [6] 98 % of control | [7] 98 % of control

C#CC(C)(C)CC(=O)O
inactive: [13] 102 % of control | dose: 200.0 mg/kg/injection, schedule: Q01DX009 (ip), vehicle: saline 101 % of control | dose: 400.0 mg/kg/injection, schedule: Q01DX009 (ip), vehicle: saline 98 % of control

CCOP(=S)(OCC)C(C)(C)C
inactive: [14] 107 % of control | [15] 103 % of control | [16] 95 % of control

O=C(O)C(F)(F)C(F)(F)C(F)(F)C(F)=C(F)F
inactive: [17] 103 % of control | [18] 101 % of control

CC(=O)NC(C)(NC(=O)CCl)C(=O)O (centres undefined)
inactive: [14] 100 % of control | [15] 96 % of control | [16] 93 % of control

CCOc1ccc2ccccc2c1C
inactive: dose: 100.0 mg/kg/injection, schedule: Q04DX002 (ip), vehicle: other 120 % of control | dose: 200.0 mg/kg/injection, schedule: Q04DX002 (ip), vehicle: other 112 % of control | dose: 400.0 mg/kg/injection, schedule: Q04DX002 (ip), vehicle: other 104 % of control

O=C1NC(c2ccccc2)N=C2Oc3ccccc3C=C12 (centres undefined)
inactive: dose: 1.56 mg/kg/injection, schedule: Q01DX009 (ip), vehicle: saline with Tween-80 103 % of control | dose: 3.12 mg/kg/injection, schedule: Q01DX009 (ip), vehicle: saline with Tween-80 94 % of control and 97 % of control and 98 % of control | dose: 6.25 mg/kg/injection, schedule: Q01DX009 (ip), vehicle: saline with Tween-80 100 % of control (2×) and 103 % of control | [6] 92 % of control

Nc1ccc(-c2ccc(N)c([N+](=O)[O-])c2)cc1[N+](=O)[O-]
inactive: [6] 98 % of control | [3] 86 % of control | [7] 94 % of control | [4] 89 % of control | [8] 95 % of control | [5] 86 % of control

CN(Cc1cnc2nc(N)nc(N)c2n1)c1ccc(C(=O)N[C@@H](CCC(=O)O)C(N)=O)cc1
inactive: dose: 3.0 mg/kg/injection, schedule: Q01DX009 (ip), vehicle: sodium bicarbonate 98 % of control | dose: 6.0 mg/kg/injection, schedule: Q01DX009 (ip), vehicle: sodium bicarbonate 100 % of control | dose: 12.0 mg/kg/injection, schedule: Q01DX009 (ip), vehicle: sodium bicarbonate 111 % of control | dose: 50.0 mg/kg/injection, schedule: Q01DX009 (ip), vehicle: sodium bicarbonate 114 % of control

O=C(OCC(F)(F)F)C(Cl)(Cl)Cl
inactive: [17] 97 % of control | [18] 107 % of control | dose: 300.0 mg/kg/injection, schedule: Q01DX001 (ip), vehicle: saline 107 % of control

O=[N+]([O-])CS(=O)(=O)N1CCOCC1
inactive: dose: 100.0 mg/kg/injection, schedule: Q01DX001 (ip), vehicle: saline 103 % of control | dose: 200.0 mg/kg/injection, schedule: Q01DX001 (ip), vehicle: saline 106 % of control | dose: 400.0 mg/kg/injection, schedule: Q01DX001 (ip), vehicle: saline 110 % of control

O=C1c2ccccc2CCC12OC2c1ccc(Cl)cc1 (centres undefined)
inactive: [1] 106 % of control | [2] 101 % of control | dose: 200.0 mg/kg/injection, schedule: Q04DX003 (ip), vehicle: saline 101 % of control | dose: 400.0 mg/kg/injection, schedule: Q04DX003 (ip), vehicle: saline 98 % of control

CN1CCCC(OC(=O)C(c2ccccc2)C2(O)CCCCC2)C1 (centres undefined)
inactive: [17] 101 % of control

CCOC(=O)C1OC1(C)c1ccc(Cl)cc1 (centres undefined)
inactive: dose: 100.0 mg/kg/injection, schedule: Q04DX003 (ip), vehicle: other 95 % of control | dose: 200.0 mg/kg/injection, schedule: Q04DX003 (ip), vehicle: other 110 % of control | dose: 400.0 mg/kg/injection, schedule: Q04DX003 (ip), vehicle: other 96 % of control

CCCCNC(=O)Nc1ccc(Cl)cc1
inactive: [9] 88 % of control | [11] 86 % of control | [12] 88 % of control

CC1OC(n2cc(C(N)=O)c3c(N)ncnc32)C(O)C1O (centres undefined)
inactive: dose: 12.5 mg/kg/injection, schedule: Q01DX009 (ip), vehicle: saline 103 % of control | dose: 25.0 mg/kg/injection, schedule: Q01DX009 (ip), vehicle: saline 103 % of control | dose: 50.0 mg/kg/injection, schedule: Q01DX009 (ip), vehicle: saline 103 % of control | [13] 105 % of control

O=C(CC(c1ccccc1)c1ccccc1)c1ccccc1
inactive: [6] 98 % of control | [7] 95 % of control | [8] 98 % of control

O=C1CCC(=O)N1N1C(=O)CCC1=O
inactive: dose: 100.0 mg/kg/injection, schedule: Q01DX001 (ip), vehicle: Klucel (hydroxypropylcellulose) (HPC) 101 % of control | dose: 200.0 mg/kg/injection, schedule: Q01DX001 (ip), vehicle: Klucel (hydroxypropylcellulose) (HPC) 96 % of control | dose: 400.0 mg/kg/injection, schedule: Q01DX001 (ip), vehicle: Klucel (hydroxypropylcellulose) (HPC) 96 % of control

Cc1ccc(NCC(O)C(O)C(O)CO)cc1C (centres undefined)
inactive: [14] 106 % of control | [15] 103 % of control

Cc1ccc(C)c(NC(=O)c2cccc(Cl)c2)c1
inactive: [6] 89 % of control | [3] 94 % of control | [7] 94 % of control | [4] 94 % of control | [8] 102 % of control | [5] 94 % of control
